For experiment [1], the system named is 3D7 strain of P. falciparum. The experiment can be described thus: In vitro antimalarial activity versus 3D7 P. falciparum. Format: cell-based, Plasmodium falciparum.
For experiment [2], the system named is TM90C2B strain of P. falciparum. Nature of the experiment: In vitro antimalarial activity versus atovaquone resistant TM90C2B. Format: cell-based. To be noted: Plasmodium falciparum, read-out: IC50 in TM90C2B strain.
The target in a further experiment is T1, PfNDH2 (Plasmodium falciparum, UniProt Q8I302).
T1 sequence (Q8I302 1-533): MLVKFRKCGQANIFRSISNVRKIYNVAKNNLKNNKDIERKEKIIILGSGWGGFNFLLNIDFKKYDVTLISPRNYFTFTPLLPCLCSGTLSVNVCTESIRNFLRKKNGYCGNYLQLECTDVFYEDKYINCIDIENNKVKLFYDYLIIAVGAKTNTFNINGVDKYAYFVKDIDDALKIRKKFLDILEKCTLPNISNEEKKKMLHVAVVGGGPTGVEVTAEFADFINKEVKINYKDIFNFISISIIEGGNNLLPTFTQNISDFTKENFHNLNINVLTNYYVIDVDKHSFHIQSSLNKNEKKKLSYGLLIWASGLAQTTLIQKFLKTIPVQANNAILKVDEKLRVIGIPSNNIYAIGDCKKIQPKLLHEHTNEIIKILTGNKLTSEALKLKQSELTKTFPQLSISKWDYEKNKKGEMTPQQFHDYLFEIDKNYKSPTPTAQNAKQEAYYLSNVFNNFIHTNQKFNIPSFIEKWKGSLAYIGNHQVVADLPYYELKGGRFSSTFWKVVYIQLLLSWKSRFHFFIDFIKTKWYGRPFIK
Format: biochemical. To be noted: PfNDH2 enzyme.

pIC50: −log10 of the molar value. Like-named read-outs stand apart in the source and are kept apart here. Some results are limits rather than exact numbers.

As to `COc1ccc(Cc2ccc(-c3[nH]c4ccccc4c(=O)c3C)cc2)cc1` [6g], in experiment [1] (read-out: IC50 (nM) 3D7 ± SD, 3D7 strain of P. falciparum, in vitro), the IC50 is 37 nM.
Turning to `COc1cccc2[nH]c(-c3ccc(Cc4ccc(OC(F)(F)F)cc4)cc3)c(C)c(=O)c12` [6m], the IC50 in experiment [1] (Plasmodium falciparum, 3D7, read-out: IC50 (nM) 3D7 ± SD, 3D7 strain of P. falciparum, in vitro) was above 350 nM.
Take `O=C1C(O)=C([C@H]2CC[C@H](c3ccc(Cl)cc3)CC2)C(=O)c2ccccc21` [atovaquone]: the pIC50 in experiment [2] was 4.92.
`O=c1c(-c2ccc(Oc3ccc(OC(F)(F)F)cc3)cc2)c(CO)[nH]c2ccccc12` [compound 25]: the “IC50 (nM) PfNDH2” value on PfNDH2 was “shows no PfNDH2”.

The IC50 is the concentration needed to halve the response being measured. As a reminder, the pIC50 is −log10 of the IC50, conventionally taken in molar units.

These data come from paper PMC3297363 (Journal of Medicinal Chemistry, 2012).
